Experiments:
[1] = biological target: T1, MAP kinase-activated protein kinase 5 (Homo sapiens) (UniProt Q8IW41); assay: Selectivity interaction (Millipore kinase profiler) EUB0000124b MAPKAPK5; conditions: at 10 µM
T1 sequence (whole entry): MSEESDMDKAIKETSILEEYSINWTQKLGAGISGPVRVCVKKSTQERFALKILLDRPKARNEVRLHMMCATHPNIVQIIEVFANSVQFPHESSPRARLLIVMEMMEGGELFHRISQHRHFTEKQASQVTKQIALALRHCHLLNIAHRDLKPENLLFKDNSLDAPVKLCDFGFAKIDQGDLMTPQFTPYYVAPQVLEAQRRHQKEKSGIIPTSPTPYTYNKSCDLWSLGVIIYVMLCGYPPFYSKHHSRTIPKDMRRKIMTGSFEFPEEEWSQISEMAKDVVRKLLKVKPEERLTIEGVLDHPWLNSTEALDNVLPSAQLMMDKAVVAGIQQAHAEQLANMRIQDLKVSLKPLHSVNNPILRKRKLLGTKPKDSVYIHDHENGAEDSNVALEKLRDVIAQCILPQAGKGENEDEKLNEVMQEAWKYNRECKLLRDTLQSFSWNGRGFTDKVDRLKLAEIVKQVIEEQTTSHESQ

[2] = biological target: T2, Serine/threonine-protein kinase TAO2 (Homo sapiens) (UniProt Q9UL54); assay: Selectivity interaction (KinomeScan (DiscoverX)) EUB0000618a TAOK2; conditions: at 10 µM
T2 sequence (whole entry): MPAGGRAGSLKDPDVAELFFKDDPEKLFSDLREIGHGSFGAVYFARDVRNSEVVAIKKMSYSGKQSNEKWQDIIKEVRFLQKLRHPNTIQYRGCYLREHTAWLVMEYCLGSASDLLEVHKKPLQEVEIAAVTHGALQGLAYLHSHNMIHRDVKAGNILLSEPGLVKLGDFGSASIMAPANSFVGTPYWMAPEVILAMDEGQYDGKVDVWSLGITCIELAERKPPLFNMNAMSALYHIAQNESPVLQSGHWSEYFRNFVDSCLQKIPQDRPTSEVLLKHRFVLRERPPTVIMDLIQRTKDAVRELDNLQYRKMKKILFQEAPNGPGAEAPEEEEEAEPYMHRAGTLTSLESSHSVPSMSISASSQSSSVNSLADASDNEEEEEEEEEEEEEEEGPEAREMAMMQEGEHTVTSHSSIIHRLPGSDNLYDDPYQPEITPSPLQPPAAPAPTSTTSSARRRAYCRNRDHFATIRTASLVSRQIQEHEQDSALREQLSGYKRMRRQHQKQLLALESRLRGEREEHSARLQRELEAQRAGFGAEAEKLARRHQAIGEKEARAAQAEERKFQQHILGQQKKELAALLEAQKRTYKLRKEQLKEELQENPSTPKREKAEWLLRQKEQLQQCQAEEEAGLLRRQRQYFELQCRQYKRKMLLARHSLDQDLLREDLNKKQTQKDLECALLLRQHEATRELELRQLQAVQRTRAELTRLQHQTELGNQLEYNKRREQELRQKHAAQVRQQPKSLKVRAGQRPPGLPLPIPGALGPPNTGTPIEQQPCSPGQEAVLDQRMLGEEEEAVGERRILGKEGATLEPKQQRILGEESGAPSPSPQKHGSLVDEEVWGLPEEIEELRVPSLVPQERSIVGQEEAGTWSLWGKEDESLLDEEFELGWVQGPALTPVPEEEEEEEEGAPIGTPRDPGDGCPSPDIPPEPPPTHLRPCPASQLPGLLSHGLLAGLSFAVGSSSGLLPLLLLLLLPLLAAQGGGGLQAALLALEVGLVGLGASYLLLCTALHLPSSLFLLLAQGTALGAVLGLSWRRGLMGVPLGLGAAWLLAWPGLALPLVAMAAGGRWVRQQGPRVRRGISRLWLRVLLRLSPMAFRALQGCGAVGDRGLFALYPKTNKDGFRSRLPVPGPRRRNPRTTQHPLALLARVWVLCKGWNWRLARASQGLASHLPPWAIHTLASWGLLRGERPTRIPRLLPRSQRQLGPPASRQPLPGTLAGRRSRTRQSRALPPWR

[3] = biological target: Tyrosine-protein kinase Lck (Homo sapiens, UniProt P06239); assay: Selectivity interaction (KinomeScan (DiscoverX)) EUB0000655a LCK; conditions: at 10 µM
[4] = biological target: T3, NUAK family SNF1-like kinase 1 (Homo sapiens) (UniProt O60285); assay: Selectivity interaction (ProQinase) EUB0000171b NUAK1
T3 sequence (whole entry): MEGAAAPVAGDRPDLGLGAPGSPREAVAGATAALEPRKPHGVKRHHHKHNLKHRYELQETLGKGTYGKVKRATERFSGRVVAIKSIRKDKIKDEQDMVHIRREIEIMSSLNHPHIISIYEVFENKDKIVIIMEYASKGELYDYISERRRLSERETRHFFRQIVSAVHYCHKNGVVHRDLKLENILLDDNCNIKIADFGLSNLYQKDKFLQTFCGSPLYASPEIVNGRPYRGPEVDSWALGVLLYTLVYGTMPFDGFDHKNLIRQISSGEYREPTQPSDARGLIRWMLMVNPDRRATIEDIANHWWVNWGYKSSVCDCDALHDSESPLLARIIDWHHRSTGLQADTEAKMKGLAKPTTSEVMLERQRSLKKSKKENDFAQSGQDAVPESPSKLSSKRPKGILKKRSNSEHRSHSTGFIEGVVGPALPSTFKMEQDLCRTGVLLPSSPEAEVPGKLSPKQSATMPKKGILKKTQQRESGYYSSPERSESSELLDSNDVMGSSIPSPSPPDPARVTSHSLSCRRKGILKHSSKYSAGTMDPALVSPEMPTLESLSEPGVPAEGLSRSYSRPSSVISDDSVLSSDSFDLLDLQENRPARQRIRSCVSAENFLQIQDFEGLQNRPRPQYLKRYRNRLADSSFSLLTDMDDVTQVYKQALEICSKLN

Chain of Tyrosine-protein kinase Lck (P06239 2-509 limits assumed): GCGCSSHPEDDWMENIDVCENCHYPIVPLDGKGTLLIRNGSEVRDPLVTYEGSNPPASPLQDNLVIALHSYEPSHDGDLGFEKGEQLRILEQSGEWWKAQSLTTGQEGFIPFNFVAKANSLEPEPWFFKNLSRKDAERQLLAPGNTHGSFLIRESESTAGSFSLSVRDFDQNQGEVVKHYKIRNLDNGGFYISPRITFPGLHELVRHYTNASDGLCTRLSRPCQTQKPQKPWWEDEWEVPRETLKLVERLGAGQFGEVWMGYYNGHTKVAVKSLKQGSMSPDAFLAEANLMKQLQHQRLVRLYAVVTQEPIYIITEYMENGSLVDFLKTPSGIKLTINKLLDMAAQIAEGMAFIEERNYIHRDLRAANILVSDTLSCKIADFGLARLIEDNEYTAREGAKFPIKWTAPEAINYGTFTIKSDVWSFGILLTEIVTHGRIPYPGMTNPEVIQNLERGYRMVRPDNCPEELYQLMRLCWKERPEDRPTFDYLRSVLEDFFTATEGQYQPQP

For CC(=O)Nc1cccc(-n2c(=O)n(C3CC3)c(=O)c3c(Nc4ccc(I)cc4F)n(C)c(=O)c(C)c32)c1, which % of control [1] is on record?
The % of control was 91%.

With O[C@H]1CC[C@H](Nc2ncc3nc(Nc4c(F)cc(F)cc4F)n([C@H]4CCOC4)c3n2)CC1 as the molecule, how does the % of control [2] read?
The % of control was 93%.

With CN(C)CCOc1ccc(-c2nc(-c3ccncc3)c(-c3ccc4c(c3)CC/C4=N\O)[nH]2)cc1 as the molecule, how does the % of control [3] read?
The % of control was 29%.

Which results are given for C=CC(=O)Nc1cccc(C(=O)Nc2ccc(Nc3cc(-c4[nH]c(SC)nc4C)ccn3)cc2)c1?
% of control ([4]; at 1 µM): 97%; % of control ([4]; at 5 µM): 88%

Reference: ChEMBL document CHEMBL5465560, “Selectivity Literature for EUbOPEN Chemogenomic Library” (2024)
